Assay results published in ChEMBL document CHEMBL1201862, “PubChem BioAssay data set” (2004).
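Five concentrations, 48 hours, 96-well plates. GI50 = concentration required for 50% inhibition of growth.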 The source made the active and inactive calls. Rule as the data show it: active = GI50 up to about 1.1 µM and inactive = higher.

Experiments:
Assay in all cases: inhibition of tumour cell growth, NCI panel, 48 h
[1] = tested on: NCI-H460
[2] = tested on: OVCAR-4
[3] = tested on: SNB-75
[4] = tested on: A498
[5] = tested on: TK-10
[6] = tested on: SF-268
[7] = tested on: HOP-92
[8] = tested on: IGROV-1
[9] = tested on: EKVX
[10] = tested on: MDA-MB-231
[11] = tested on: HL-60
[12] = tested on: SW-620
[13] = tested on: SK-MEL-5
[14] = tested on: T47D
[15] = tested on: CCRF-CEM
[16] = tested on: UACC-257
[17] = tested on: SK-MEL-2
[18] = tested on: MCF7
[19] = tested on: HT-29
[20] = tested on: Malme-3M
[21] = tested on: U-251
[22] = tested on: ACHN
[23] = tested on: OVCAR-8
[24] = tested on: HCC 2998
[25] = tested on: NCI-H522
[26] = tested on: K562
[27] = tested on: MOLT-4
[28] = tested on: OVCAR-3
[29] = tested on: Hs-578T
[30] = tested on: UACC-62
[31] = tested on: MDA-N
[32] = tested on: 786-0
[33] = tested on: DU-145
[34] = tested on: RXF 393
[35] = tested on: SNB-19
[36] = tested on: NCI-H226
[37] = tested on: SR
[38] = tested on: UO-31
[39] = tested on: COLO 205
[40] = tested on: KM12
[41] = tested on: RPMI-8226
[42] = tested on: M14
[43] = tested on: NCI/ADR-RES
[44] = tested on: CAKI-1
[45] = tested on: NCI-H23
[46] = tested on: PC-3
[47] = tested on: MDA-MB-435
[48] = tested on: SK-OV-3
[49] = tested on: A549
[50] = tested on: HOP-62
[51] = tested on: SF-295
[52] = tested on: LOX IMVI
[53] = tested on: OVCAR-5
[54] = tested on: SK-MEL-28
[55] = tested on: HCT-15
[56] = tested on: SF-539
[57] = tested on: SN12C
[58] = tested on: HCT-116

[O-][S+](c1ccccc1)C1CC2CC3(CCC21O)OCCO3 (centres undefined)
GI50 [1]: > 100 µM (inactive)
GI50 [2]: > 100 µM (inactive)
GI50 [3]: > 100 µM (inactive)
GI50 [4]: > 100 µM (inactive)
GI50 [5]: > 100 µM (inactive)
GI50 [6]: > 100 µM (inactive)
GI50 [7]: > 100 µM (inactive)
GI50 [8]: > 100 µM (inactive)
GI50 [9]: > 100 µM (inactive)
GI50 [10]: > 100 µM (inactive)
GI50 [11]: > 100 µM (inactive)
GI50 [12]: > 100 µM (inactive)
GI50 [13]: > 100 µM (inactive)
GI50 [14]: > 100 µM (inactive)
GI50 [15]: > 100 µM (inactive)
GI50 [16]: > 100 µM (inactive)
GI50 [17]: > 100 µM (inactive)
GI50 [18]: > 100 µM (inactive)
GI50 [19]: > 100 µM (inactive)
GI50 [20]: > 100 µM (inactive)
GI50 [21]: > 100 µM (inactive)
GI50 [22]: > 100 µM (inactive)
GI50 [23]: > 100 µM (inactive)
GI50 [24]: > 100 µM (inactive)
GI50 [25]: > 100 µM (inactive)
GI50 [26]: > 100 µM (inactive)
GI50 [27]: > 100 µM (inactive)
GI50 [28]: > 100 µM (inactive)
GI50 [29]: > 100 µM (inactive)
GI50 [30]: > 100 µM (inactive)
GI50 [31]: > 100 µM (inactive)
GI50 [32]: > 100 µM (inactive)
GI50 [33]: > 100 µM (inactive)
GI50 [34]: > 100 µM (inactive)
GI50 [35]: > 100 µM (inactive)
GI50 [36]: > 100 µM (inactive)
GI50 [37]: > 100 µM (inactive)
GI50 [38]: > 100 µM (inactive)
GI50 [39]: > 100 µM (inactive)
GI50 [40]: > 100 µM (inactive)
GI50 [41]: > 100 µM (inactive)
GI50 [42]: > 100 µM (inactive)
GI50 [43]: > 100 µM (inactive)
GI50 [44]: > 100 µM (inactive)
GI50 [45]: > 100 µM (inactive)
GI50 [46]: > 100 µM (inactive)
GI50 [47]: > 100 µM (inactive)
GI50 [48]: > 100 µM (inactive)
GI50 [49]: > 100 µM (inactive)
GI50 [50]: > 100 µM (inactive)
GI50 [51]: > 100 µM (inactive)
GI50 [52]: > 100 µM (inactive)
GI50 [53]: > 100 µM (inactive)
GI50 [54]: > 100 µM (inactive)
GI50 [55]: > 100 µM

Brc1ccc(-c2cc(-c3ccc4c(c3)OCO4)c(-c3cccs3)n2Cc2ccccc2)cc1
GI50 [1]: > 100 µM (inactive)
GI50 [2]: > 100 µM (inactive)
GI50 [3]: > 100 µM (inactive)
GI50 [5]: > 100 µM (inactive)
GI50 [6]: > 100 µM (inactive)
GI50 [8]: > 100 µM (inactive)
GI50 [9]: > 100 µM (inactive)
GI50 [10]: > 100 µM (inactive)
GI50 [11]: > 100 µM (inactive)
GI50 [12]: > 100 µM (inactive)
GI50 [13]: > 100 µM (inactive)
GI50 [14]: > 100 µM (inactive)
GI50 [15]: > 100 µM (inactive)
GI50 [16]: > 100 µM (inactive)
GI50 [17]: > 100 µM (inactive)
GI50 [18]: > 100 µM (inactive)
GI50 [19]: > 100 µM (inactive)
GI50 [21]: > 100 µM (inactive)
GI50 [22]: > 100 µM (inactive)
GI50 [56]: > 100 µM (inactive)
GI50 [23]: > 100 µM (inactive)
GI50 [24]: > 100 µM (inactive)
GI50 [26]: > 100 µM (inactive)
GI50 [27]: > 100 µM (inactive)
GI50 [29]: > 100 µM (inactive)
GI50 [30]: > 100 µM (inactive)
GI50 [31]: > 100 µM (inactive)
GI50 [32]: > 100 µM (inactive)
GI50 [33]: > 100 µM (inactive)
GI50 [34]: > 100 µM (inactive)
GI50 [35]: > 100 µM (inactive)
GI50 [37]: > 100 µM (inactive)
GI50 [38]: > 100 µM (inactive)
GI50 [39]: > 100 µM (inactive)
GI50 [40]: > 100 µM (inactive)
GI50 [41]: > 100 µM (inactive)
GI50 [42]: > 100 µM (inactive)
GI50 [43]: > 100 µM (inactive)
GI50 [44]: > 100 µM (inactive)
GI50 [57]: > 100 µM (inactive)
GI50 [46]: > 100 µM (inactive)
GI50 [47]: > 100 µM (inactive)
GI50 [48]: > 100 µM (inactive)
GI50 [58]: > 100 µM (inactive)
GI50 [49]: > 100 µM (inactive)
GI50 [50]: > 100 µM (inactive)
GI50 [51]: > 100 µM (inactive)
GI50 [54]: > 100 µM (inactive)
GI50 [55]: > 100 µM
